Results taken from PubChem BioAssay (NCI).
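A five-concentration, 48-hour dose response in 96-well plates underlies each endpoint, interpolated linearly between surrounding concentrations. TGI is the concentration that stops growth completely.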

How the values were obtained:
Assay in all cases: growth of human tumour cells (NCI), 48 h
[1] = tested on: SNB-75 CNS
[2] = tested on: OVCAR-8 ovarian
[3] = tested on: UACC-257 melanoma
[4] = tested on: OVCAR-5 ovarian
[5] = tested on: RXF-631 renal
[6] = tested on: HCT-15 colon
[7] = tested on: OVCAR-3 ovarian
[8] = tested on: DMS 273 small cell lung
[9] = tested on: ACHN renal
[10] = tested on: A549 NSCLC
[11] = tested on: IGROV1 ovarian
[12] = tested on: HL-60(TB) leukemia
[13] = tested on: HOP-18 NSCLC
[14] = tested on: A498 renal
[15] = tested on: RPMI-8226 leukemia
[16] = tested on: LXFL 529 NSCLC
[17] = tested on: K-562 leukemia
[18] = tested on: HOP-92 NSCLC
[19] = tested on: M14 melanoma
[20] = tested on: HCC-2998 colon
[21] = tested on: M19-MEL melanoma
[22] = tested on: DLD-1 colon
[23] = tested on: SNB-19 CNS
[24] = tested on: OVCAR-4 ovarian
[25] = tested on: RXF 393 renal
[26] = tested on: SW-620 colon
[27] = tested on: SK-MEL-5 melanoma
[28] = tested on: NCI-H23 lung
[29] = tested on: NCI-H522 lung
[30] = tested on: LOX IMVI melanoma
[31] = tested on: SN12C renal
[32] = tested on: HT29 colon
[33] = tested on: COLO 205 colon
[34] = tested on: KM20L2 colon
[35] = tested on: XF 498 CNS
[36] = tested on: EKVX NSCLC
[37] = tested on: SK-MEL-2 melanoma
[38] = tested on: TK-10 renal
[39] = tested on: 786-0 renal
[40] = tested on: SF-268 CNS
[41] = tested on: NCI-H460 lung
[42] = tested on: U251 CNS
[43] = tested on: CCRF-CEM leukemia
[44] = tested on: SF-539 CNS
[45] = tested on: SF-295 CNS
[46] = tested on: UACC-62 melanoma
[47] = tested on: KM12 colon
[48] = tested on: UO-31 renal
[49] = tested on: SK-OV-3 ovarian
[50] = tested on: SK-MEL-28 melanoma
[51] = tested on: CAKI-1 renal
[52] = tested on: MOLT-4 leukemia
[53] = tested on: MALME-3M melanoma
[54] = tested on: NCI-H226 lung
[55] = tested on: SNB-78 CNS
[56] = tested on: DMS 114 small cell lung
[57] = tested on: HOP-62 NSCLC

## CCCCCCCCCCOC(=O)NCCC
[1]
  TGI: > 100 µM
[2]
  TGI: > 100 µM
[3]
  TGI: 92.8 µM
[4]
  TGI: 93.9 µM
[5]
  TGI: > 100 µM
[6]
  TGI: 48.4 µM
[7]
  TGI: > 100 µM
[8]
  TGI: 54.9 µM
[9]
  TGI: > 100 µM
[10]
  TGI: > 100 µM
[11]
  TGI: > 100 µM
[12]
  TGI: 32.7 µM
[13]
  TGI: > 100 µM
[14]
  TGI: > 100 µM
[15]
  TGI: 43.3 µM
[16]
  TGI: > 100 µM
[17]
  TGI: > 100 µM
[18]
  TGI: 48.1 µM
[19]
  TGI: > 100 µM
[20]
  TGI: 76.8 µM
[21]
  TGI: > 100 µM
[22]
  TGI: > 100 µM
[23]
  TGI: > 100 µM
[24]
  TGI: > 100 µM
[25]
  TGI: 39.9 µM
[26]
  TGI: > 100 µM
[27]
  TGI: 52.9 µM
[28]
  TGI: > 100 µM
[29]
  TGI: 50.4 µM
[30]
  TGI: 36.3 µM
[31]
  TGI: 86.3 µM
[32]
  TGI: 49.7 µM
[33]
  TGI: > 100 µM
[34]
  TGI: 62.2 µM
[35]
  TGI: 43.6 µM
[36]
  TGI: 67.7 µM
[37]
  TGI: 41 µM
[38]
  TGI: > 100 µM
[39]
  TGI: > 100 µM
[40]
  TGI: > 100 µM
[41]
  TGI: 65.9 µM
[42]
  TGI: 80.6 µM
[43]
  TGI: 48.4 µM
[44]
  TGI: > 100 µM
[45]
  TGI: > 100 µM
[46]
  TGI: > 100 µM
[47]
  TGI: > 100 µM
[48]
  TGI: 50.6 µM
[49]
  TGI: > 100 µM
[50]
  TGI: > 100 µM
[51]
  TGI: > 100 µM
[52]
  TGI: 43.6 µM
[53]
  TGI: 54.8 µM

## COc1ccc(/C=C/C(=O)c2sc(-c3cccnc3)nc2C)cc1
[1]
  TGI: > 100 µM
[2]
  TGI: > 100 µM
[3]
  TGI: > 100 µM
[4]
  TGI: > 100 µM
[5]
  TGI: > 100 µM
[6]
  TGI: > 100 µM
[7]
  TGI: 88.3 µM
[8]
  TGI: > 100 µM
[10]
  TGI: > 100 µM
[54]
  TGI: > 100 µM
[11]
  TGI: > 100 µM
[12]
  TGI: 48.1 µM
[13]
  TGI: > 100 µM
[14]
  TGI: > 100 µM
[15]
  TGI: 26.2 µM
[17]
  TGI: > 100 µM
[18]
  TGI: > 100 µM
[20]
  TGI: > 100 µM
[21]
  TGI: > 100 µM
[22]
  TGI: > 100 µM
[55]
  TGI: > 100 µM
[25]
  TGI: 90.8 µM
[56]
  TGI: > 100 µM
[26]
  TGI: > 100 µM
[27]
  TGI: > 100 µM
[28]
  TGI: > 100 µM
[29]
  TGI: > 100 µM
[30]
  TGI: > 100 µM
[31]
  TGI: > 100 µM
[32]
  TGI: > 100 µM
[33]
  TGI: > 100 µM
[34]
  TGI: > 100 µM
[36]
  TGI: > 100 µM
[37]
  TGI: > 100 µM
[38]
  TGI: > 100 µM
[39]
  TGI: > 100 µM
[40]
  TGI: > 100 µM
[41]
  TGI: > 100 µM
[57]
  TGI: > 100 µM
[42]
  TGI: > 100 µM
[43]
  TGI: > 100 µM
[44]
  TGI: 65 µM
[45]
  TGI: > 100 µM
[46]
  TGI: > 100 µM
[47]
  TGI: 44.5 µM
[48]
  TGI: > 100 µM
[49]
  TGI: > 100 µM
[50]
  TGI: > 100 µM
[51]
  TGI: > 100 µM
[52]
  TGI: 99.5 µM
[53]
  TGI: > 100 µM
